Laboratory results: patent US20090076092A1, “METHOD FOR DISRUPTING REPRODUCTIVE PERFORMANCE OF ARTHROPODS” (priority 2006, published 2009)

Legend:
[1] = system: beet armyworm (Spodoptera exigua); assay: Test F: oviposition and egg hatch of treated beet armyworm adults; assay type: in vivo; settings: for % of reduction: oviposition versus control; for No. neonates: total from successful egg hatch
Text: For evaluating the reproductive performance effects on beet armyworm (Spodoptera exigua), each test unit consisted of one pair of adult (female and male) Spodoptera exigua moths. To obtain the adult moths, pupae of approximately the same age (±1 day) were sexed and placed in individual containers until adults emerged. After emergence, the test insects were placed in a meshed cage.
(§1) Sub-lethal concentrations of Compound 1 on beet armyworm were defined based on a preliminary study using rates of 12.5, 25, 50 and 100 ppm.
The caged adults were sprayed with test solutions of the designated treatments using a compressed air-propelled (moving) belt sprayer calibrated at 0.7 m/sec (to deliver a flow rate was ca. 5.5 mL/sec), at 207 kPa, using nozzle 8001E Tee Jet flat fan spray nozzle positioned 18 cm above the test units. Each treatment had 12 replicates (i.e. 12 adult females and 12 adult males were used per treatment).
One day after treatment, a treated male and female (one each) were placed in a cage made from a 300 mL clear plastic cup covered with screened cloth and allowed to copulate. A cotton wick/plug soaked with 10% sucrose solution was supplied in each cage as a diet source.
The number of eggs laid and number of eggs hatched were counted at 3, 4, 5 and 6 days after treatment (DAT), which represented the typical period in which female moths actively produce viable eggs. The pair of moths was transferred to a new cage after each evaluation. To evaluate the number of egg hatched, the copulation cages containing eggs were saved and maintained in a growth chamber at 27° C., 50% relative humidity and 16 hours of light per day.
The raw data were analyzed using Fisher's LSD tests for means separation. […] The percent of reduction was derived by dividing the number of eggs from each treatment by the number of eggs from the control, subtracting the quotient from 1, and then multiplying by 100%.

[2] = system: green peach aphid (Myzus persicae Sulzer); assay: Test B: nymph production by green peach aphid after 24 hours exposure on treated radish plants; assay type: in vivo; settings: for Living (%) / On plant (%): 1 DAT; for Living (%): all aphids alive 24 h after treatment; for On plant (%): all aphids on the treated plant; for No. of nymphs (mean ± SE): per adult
Method: For evaluating reproductive performance effects on green peach aphid (Myzus persicae Sulzer), each test unit consisted of a radish plant grown in a 6 cm×6 cm square pot infested with a mixed population (nymphs and adults) of green peach aphids from a laboratory-reared culture. Each plant was infested with about 100 aphids. Test solutions were prepared and sprayed on the test plants (2 plants per treatment) as described for TEST A. Treatments included Compound 1 at 100 and 500 ppm, Compound 2 at 4 and 6 ppm, and a control without test compound.
Aphids were kept on the treated plants for 24 hours, and then only adult aphids staying on the treated plant were transferred to untreated radish plants grown singly in a 6 cm×6 cm square pots. One test unit or one replicate consisted of a single adult aphid on a radish plant in a pot. The number of nymphs in each replicate was counted 4 and 6 days after treatment. At the higher concentration of each test compound a total of 45 replicates were used, and at the lower concentration of each test compound a total of 30 replicates were used. In addition, prior to transferring aphids singly to the untreated radish plants one day after treatment (1 DAT), the total number of aphids living and those remaining on the treated plant were counted.
The results are listed in Table B. Square-root transformation was done on the number of nymphs produced per adult (female) aphid, and the data were analyzed using analysis of variance (ANOVA) and Fisher's Least Significant Difference (LSD) tests for separation of means.

diamondback moth = assay: Previous laboratory studies of diamondback moth mortality; assay type: in vivo; settings: Plutella xylostella, read-out: mortality of the diamondback moth (LC20)
Text: (§2) The sub-lethal concentrations or doses used in the various tests for the specific pest species and populations tested in the context of the present invention were estimated from multiple-rate, dose-finding tests to determine the control rates and activity break rates. […] Therefore, depending on the target pest species, either the LC50 or a suitable concentration between LC50 and LC20 was selected as the sub-lethal dose. The specific procedures used to select the respective doses are described in each Test.
In addition, a control without test compound was included.

beet armyworm = assay: Preliminary dose-response study on beet armyworm; assay type: in vivo, Spodoptera exigua; settings: beet armyworm adults; estimated from the dose-response curve (12.5, 25, 50 and 100 ppm)
Text: as §2, §1

## CNC(=O)c1cc(Cl)cc(C)c1NC(=O)c1cc(Br)nn1-c1ncccc1Cl [Compound 1, 3-bromo-N-[4-chloro-2-methyl-6-[(methylamino)carbonyl]phenyl]-1-(3-chloro-2-pyridinyl)-1H-pyrazole-5-carboxamide]
[1]; 12.5 ppm, 3 DAT
  % hatched: 83%
  No. eggs: 782 b
  % of reduction: 66%
  No. neonates: 647 b
[1]; 12.5 ppm, 4 DAT
  % hatched: 82%
  No. eggs: 315 b
  % of reduction: 66%
  No. neonates: 257 b
[1]; 12.5 ppm, 5 DAT
  % hatched: 60%
  No. eggs: 256 b
  % of reduction: 77%
  No. neonates: 154 b
[1]; 12.5 ppm, 6 DAT
  % hatched: 41%
  No. eggs: 219 b
  % of reduction: 73%
  No. neonates: 90 b
[1]; 20 ppm, 3 DAT
  % hatched: 31%
  No. eggs: 208 b
  % of reduction: 91%
  No. neonates: 65 b
[1]; 20 ppm, 4 DAT
  % hatched: 0%
  No. eggs: 134 bc
  % of reduction: 91%
  No. neonates: 0 b
[1]; 20 ppm, 5 DAT
  % hatched: 0%
  No. eggs: 132 b
  % of reduction: 89%
  No. neonates: 0 b
[1]; 20 ppm, 6 DAT
  % hatched: 0%
  No. eggs: 109 b
  % of reduction: 87%
  No. neonates: 0 b
[1]; 31 ppm, 3 DAT
  % hatched: 0%
  No. eggs: 61 b
  % of reduction: 97%
  No. neonates: 0 b
[1]; 31 ppm, 4 DAT
  % hatched: 0%
  No. eggs: 29 c
  % of reduction: 97%
  No. neonates: 0 b
[1]; 31 ppm, 5 DAT
  % hatched: 0%
  No. eggs: 91 b
  % of reduction: 92%
  No. neonates: 0 b
[1]; 31 ppm, 6 DAT
  % hatched: 0%
  No. eggs: 108 b
  % of reduction: 87%
  No. neonates: 0 b
[1]; all the tested rates (12.5, 20, 31 ppm), all the observation dates
  number of eggs (fecundity) and number of neonates (fertility) versus control: significant reductions
[2]; 100 ppm
  Living (%): 99.9%
  On plant (%): 99.6%
[2]; 100 ppm, 4 DAT
  No. of nymphs (mean ± SE): 3.5 ± 0.3 b
[2]; 100 ppm, 6 DAT
  No. of nymphs (mean ± SE): 7.3 ± 0.4 a
[2]; 500 ppm
  Living (%): 99.6%
  On plant (%): 99.9%
[2]; 500 ppm, 4 DAT
  No. of nymphs (mean ± SE): 4.6 ± 0.3 a
[2]; 500 ppm, 6 DAT
  No. of nymphs (mean ± SE): 8.1 ± 0.5 a
Diamondback moth
  mortality at 10 ppm: ~20%
Beet armyworm
  LC20: 12.5 ppm
  LC50: 20 ppm
  LC80: 31 ppm
